Data taken from ChEMBL document CHEMBL4138163, “DMXAA-pyranoxanthone hybrids enhance inhibition activities against human cancer cells with multi-target functions” (Eur J Med Chem, 2018).
The source made the active and inactive calls. The rule behind the calls is not given here.

Columns and labels:
MDA-MB-231 [1] = experiment: Antiproliferative activity against human MDA-MB-231 cells after 24 hrs by MTT assay; type: functional, cell-based; conditions: MDA-MB-231, 24 h
MCF7 [2] = experiment: Antiproliferative activity against human MCF7 cells after 24 hrs by MTT assay; type: functional, cell-based; conditions: MCF7, 24 h
HepG2 [3] = experiment: Antiproliferative activity against human HepG2 cells after 24 hrs by MTT assay; type: functional, cell-based; conditions: HepG2, 24 h
K562 [4] = experiment: Antiproliferative activity against human K562 cells after 24 hrs by MTT assay; type: functional, cell-based; conditions: K562, 24 h
MDA-MB-231 [5] = experiment: Antiproliferative activity against human MDA-MB-231 cells co-treated with DMXAA at 1:1 molar ratio after 24 hrs by MTT assay; type: functional, cell-based; conditions: MDA-MB-231, 24 h
MCF7 [6] = experiment: Antiproliferative activity against human MCF7 cells co-treated with DMXAA at 1:1 molar ratio after 24 hrs by MTT assay; type: functional, cell-based; conditions: MCF7, 24 h
HepG2 [7] = experiment: Antiproliferative activity against human HepG2 cells co-treated with DMXAA at 1:1 molar ratio after 24 hrs by MTT assay; type: functional, cell-based; conditions: HepG2, 24 h
K562 [8] = experiment: Antiproliferative activity against human K562 cells co-treated with DMXAA at 1:1 molar ratio after 24 hrs by MTT assay; type: functional, cell-based; conditions: K562, 24 h
HepG2 [9] = experiment: Induction of apoptosis in human HepG2 cells assessed as late apoptotic cells co-treated with pyranoxanthone at 1:1 molar ratio after 24 hrs by annexin-V/propidium iodide staining-based flow cytometric method relative to control; type: functional
HepG2 [10] = experiment: Induction of apoptosis in human HepG2 cells assessed as late apoptotic cells co-treated with DMXAA at 1:1 molar ratio after 24 hrs by annexin-V/propidium iodide staining-based flow cytometric method relative to control; type: functional
HepG2 [11] = experiment: Induction of apoptosis in human HepG2 cells assessed as total apoptosis rate at 0.2 uM after 24 hrs by annexin-V/propidium iodide staining-based flow cytometric method relative to control; type: functional
HepG2 [12] = experiment: Induction of apoptosis in human HepG2 cells assessed as necrotic cells at 0.2 uM after 24 hrs by annexin-V/propidium iodide staining-based flow cytometric method relative to control; type: functional
HepG2 [13] = experiment: Induction of apoptosis in human HepG2 cells assessed as increase in cleaved caspase-3 levels at 0.2 uM after 24 hrs by Western blot method; type: functional, cell-based
HepG2 [14] = experiment: Induction of apoptosis in human HepG2 cells assessed as increase in cleaved caspase-9 levels at 0.2 uM after 24 hrs by Western blot method; type: functional, cell-based
HepG2 [15] = experiment: Induction of apoptosis in human HepG2 cells assessed as increase in cleaved PARP levels at 0.2 uM after 24 hrs by Western blot method; type: functional, cell-based
HepG2 [16] = experiment: Induction of apoptosis in human HepG2 cells assessed as increase in cleaved caspase-3 levels co-treated with DMXAA at 1:1 molar ratio after 24 hrs by Western blot method; type: functional, cell-based
HepG2 [17] = experiment: Induction of apoptosis in human HepG2 cells assessed as increase in cleaved caspase-9 levels co-treated with DMXAA at 1:1 molar ratio after 24 hrs by Western blot method; type: functional, cell-based
HepG2 [18] = experiment: Induction of apoptosis in human HepG2 cells assessed as increase in cleaved PARP levels co-treated with DMXAA at 1:1 molar ratio after 24 hrs by Western blot method; type: functional, cell-based
[19] = molecular target: T1, Tumour suppressor p53/oncoprotein Mdm2 (Homo sapiens) (UniProt P04637+Q00987); experiment: Inhibition of MDM2/p53 interaction in human HepG2 cells assessed as increase in p53 to MDM2 ratio at 0.2 uM after 24 hrs by Western blot method (reference value: 0.083); type: cell-based
[20] = molecular target: T1, Tumour suppressor p53/oncoprotein Mdm2 (Homo sapiens); experiment: Inhibition of MDM2/p53 interaction in human HepG2 cells assessed as increase in p53 to MDM2 ratio co-treated with DMXAA at 1:1 molar ratio after 24 hrs by Western blot method (reference value: 0.083); type: cell-based
HepG2 [21] = experiment: Induction of apoptosis in human HepG2 cells assessed as downregulation of Bcl-xL expression at 0.2 uM after 24 hrs by Western blot method; type: functional, cell-based
HepG2 [22] = experiment: Induction of apoptosis in human HepG2 cells assessed as upregulation of Bid expression at 0.2 uM after 24 hrs by Western blot method; type: functional, cell-based
HepG2 [23] = experiment: Induction of apoptosis in human HepG2 cells assessed as downregulation of Bcl-xL expression co-treated with DMXAA at 1:1 molar ratio after 24 hrs by Western blot method; type: functional, cell-based
HepG2 [24] = experiment: Induction of apoptosis in human HepG2 cells assessed as upregulation of Bid expression co-treated with DMXAA at 1:1 molar ratio after 24 hrs by Western blot method; type: functional, cell-based
HepG2 [25] = experiment: Induction of apoptosis in human HepG2 cells assessed as ratio of Bax/Bcl-2 at 0.2 uM after 24 hrs by Western blot method (reference value: 0.23); type: functional
HepG2 [26] = experiment: Induction of apoptosis in human HepG2 cells assessed as ratio of Bax/Bcl-2 co-treated with DMXAA at 1:1 molar ratio after 24 hrs by Western blot method (reference value: 0.23); type: functional
HepG2 [27] = experiment: Cell cycle arrest in human HepG2 cells assessed as accumulation at S phase at 0.2 uM after 28 hrs by propidium iodide staining-based flow cytometric method relative to control
HepG2 [28] = experiment: Cell cycle arrest in human HepG2 cells assessed as accumulation at S phase co-treated with DMXAA at 1:1 molar ratio after 28 hrs by propidium iodide staining-based flow cytometric method
MCF7 [29] = experiment: Antiproliferative activity against human MCF7 cells co-treated with pyranoxanthone at 1:1 molar ratio after 24 hrs by MTT assay; type: functional, cell-based; conditions: MCF7, 24 h
MDA-MB-231 [30] = experiment: Antiproliferative activity against human MDA-MB-231 cells co-treated with pyranoxanthone at 1:1 molar ratio after 24 hrs by MTT assay; type: functional, cell-based; conditions: MDA-MB-231, 24 h
HepG2 [31] = experiment: Antiproliferative activity against human HepG2 cells co-treated with pyranoxanthone at 1:1 molar ratio after 24 hrs by MTT assay; type: functional, cell-based; conditions: HepG2, 24 h
K562 [32] = experiment: Antiproliferative activity against human K562 cells co-treated with pyranoxanthone at 1:1 molar ratio after 24 hrs by MTT assay; type: functional, cell-based; conditions: K562, 24 h
L02 = experiment: Antiproliferative activity against human HL-7702 cells after 24 hrs by MTT assay; type: functional, cell-based; conditions: L02, 24 h
NIH3T3 = experiment: Antiproliferative activity against mouse NIH/3T3 cells after 24 hrs by MTT assay; type: cell-based; conditions: Mus musculus, NIH3T3, 24 h
HepG2 [33] = experiment: Induction of apoptosis in human HepG2 cells assessed as early apoptotic cells at 0.2 uM after 24 hrs by annexin-V/propidium iodide staining-based flow cytometric method relative to control; type: functional
HepG2 [34] = experiment: Induction of apoptosis in human HepG2 cells assessed as late apoptotic cells at 0.2 uM after 24 hrs by annexin-V/propidium iodide staining-based flow cytometric method relative to control; type: functional
HepG2 [35] = experiment: Induction of apoptosis in human HepG2 cells assessed as early apoptotic cells co-treated with pyranoxanthone at 1:1 molar ratio after 24 hrs by annexin-V/propidium iodide staining-based flow cytometric method relative to control; type: functional
HepG2 [36] = experiment: Induction of apoptosis in human HepG2 cells assessed as early apoptotic cells co-treated with DMXAA at 1:1 molar ratio after 24 hrs by annexin-V/propidium iodide staining-based flow cytometric method relative to control; type: functional
HepG2 [37] = experiment: Induction of apoptosis in human HepG2 cells assessed as increase in cleaved caspase-3 levels co-treated with pyranoxanthone at 1:1 molar ratio after 24 hrs by Western blot method; type: functional, cell-based
HepG2 [38] = experiment: Induction of apoptosis in human HepG2 cells assessed as increase in cleaved caspase-9 levels co-treated with pyranoxanthone at 1:1 molar ratio after 24 hrs by Western blot method; type: functional, cell-based
HepG2 [39] = experiment: Induction of apoptosis in human HepG2 cells assessed as increase in cleaved PARP levels co-treated with pyranoxanthone at 1:1 molar ratio after 24 hrs by Western blot method; type: functional, cell-based
[40] = molecular target: T1, Tumour suppressor p53/oncoprotein Mdm2 (Homo sapiens); experiment: Inhibition of MDM2/p53 interaction in human HepG2 cells assessed as increase in p53 to MDM2 ratio co-treated with pyranoxanthone at 1:1 molar ratio after 24 hrs by Western blot method (reference value: 0.083); type: cell-based
HepG2 [41] = experiment: Induction of apoptosis in human HepG2 cells assessed as downregulation of Bcl-xL expression co-treated with pyranoxanthone at 1:1 molar ratio after 24 hrs by Western blot method; type: functional, cell-based
HepG2 [42] = experiment: Induction of apoptosis in human HepG2 cells assessed as upregulation of Bid expression co-treated with pyranoxanthone at 1:1 molar ratio after 24 hrs by Western blot method; type: functional, cell-based
HepG2 [43] = experiment: Induction of apoptosis in human HepG2 cells assessed as ratio of Bax/Bcl-2 co-treated with pyranoxanthone at 1:1 molar ratio after 24 hrs by Western blot method (reference value: 0.23); type: functional
HepG2 [44] = experiment: Cell cycle arrest in human HepG2 cells assessed as accumulation at S phase co-treated with pyranoxanthone at 1:1 molar ratio after 28 hrs by propidium iodide staining-based flow cytometric method

T1 sequence (P04637 whole entry, looked up): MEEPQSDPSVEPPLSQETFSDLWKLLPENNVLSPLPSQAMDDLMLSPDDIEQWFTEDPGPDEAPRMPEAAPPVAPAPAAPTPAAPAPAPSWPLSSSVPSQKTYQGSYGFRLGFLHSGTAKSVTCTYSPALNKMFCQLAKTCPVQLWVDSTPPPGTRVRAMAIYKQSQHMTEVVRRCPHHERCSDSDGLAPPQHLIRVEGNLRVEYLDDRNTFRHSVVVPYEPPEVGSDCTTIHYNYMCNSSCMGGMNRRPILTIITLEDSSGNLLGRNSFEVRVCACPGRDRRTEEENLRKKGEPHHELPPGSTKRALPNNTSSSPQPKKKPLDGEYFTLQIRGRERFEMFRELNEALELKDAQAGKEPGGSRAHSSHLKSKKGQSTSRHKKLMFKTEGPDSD
T1 sequence (Q00987 whole entry, looked up): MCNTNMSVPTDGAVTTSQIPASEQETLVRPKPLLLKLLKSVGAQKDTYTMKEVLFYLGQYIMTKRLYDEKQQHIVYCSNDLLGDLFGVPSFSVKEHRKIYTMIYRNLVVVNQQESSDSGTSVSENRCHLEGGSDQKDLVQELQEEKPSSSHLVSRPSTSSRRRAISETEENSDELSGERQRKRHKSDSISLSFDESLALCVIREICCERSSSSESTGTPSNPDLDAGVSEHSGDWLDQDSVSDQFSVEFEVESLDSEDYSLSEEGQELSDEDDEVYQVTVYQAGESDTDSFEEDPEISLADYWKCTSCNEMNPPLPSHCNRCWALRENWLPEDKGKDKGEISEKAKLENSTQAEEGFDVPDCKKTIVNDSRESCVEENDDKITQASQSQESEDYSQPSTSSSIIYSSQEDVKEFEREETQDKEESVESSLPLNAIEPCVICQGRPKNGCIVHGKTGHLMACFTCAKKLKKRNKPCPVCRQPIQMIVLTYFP

With `Cc1ccc2c(=O)c3cccc(CC(=O)OCCCCOc4c5c(cc6c(=O)c7ccccc7oc46)CCC(C)(C)O5)c3oc2c1C` the IC50 (MDA-MB-231 [1]) was 19.6 µM, the IC50 (MCF7 [2]) was 33.2 µM and the IC50 (HepG2 [3]) was 11.9 µM. For the same compound, the IC50 (K562 [4]) was 20.6 µM.
With `CC1(C)CCc2cc3c(=O)c4ccccc4oc3c(O)c2O1` [DIHYDRO-12-HYDROXY-2,2-DIMETHYL-2H,6H-PYRANO[3,2-B]XANTHEN-6-ONE] the IC50 (MDA-MB-231 [1]) was 59.3 µM, the IC50 (MCF7 [2]) was 102 µM and the IC50 (HepG2 [3]) was 40.3 µM. For the same compound, the IC50 (K562 [4]) was 27.8 µM, the IC50 (MDA-MB-231 [5]) was 12.1 µM and the IC50 (MCF7 [6]) was 11.9 µM. The IC50 (HepG2 [7]) was 21.2 µM, the IC50 (K562 [8]) was 19.1 µM and the Activity (HepG2 [9]) was 46%. For the same compound, the Activity (HepG2 [10]) was 46%, the Activity (HepG2 [11]) was less than 10% and the Activity (HepG2 [12]) was less than 10%. The Activity (HepG2 [13]) was “Active”, the Activity (HepG2 [14]) was “Active” and the Activity (HepG2 [15]) was “Active”. The Activity (HepG2 [16]) was “Active”, the Activity (HepG2 [17]) was “Active” and the Activity (HepG2 [18]) was “Active”. For the same compound, the fold change (FC) [19] was 0.19, the fold change (FC) [20] was 0.67 and the Activity (HepG2 [21]) was “Active”. The Activity (HepG2 [22]) was “Active”, the Activity (HepG2 [23]) was “Active” and the Activity (HepG2 [24]) was “Active”. For the same compound, the Ratio (HepG2 [25]) was 0.36, the Ratio (HepG2 [26]) was 0.58 and the Activity (HepG2 [27]) was “Active”. For the same compound, the Activity (HepG2 [28]) was “Active”.
With `Cc1ccc2c(=O)c3cccc(CC(=O)O)c3oc2c1C` [VADIMEZAN] the IC50 (MCF7 [29]) was 11.9 µM, the IC50 (MDA-MB-231 [30]) was 12.1 µM and the IC50 (HepG2 [31]) was 21.2 µM. The IC50 (K562 [32]) was 19.1 µM, the IC50 (L02) was 101 µM and the IC50 (NIH3T3) was 67.8 µM. It also gave an Activity (HepG2 [33]) of 13%, an Activity (HepG2 [34]) of 7% and an Activity (HepG2 [35]) of 15%. The Activity (HepG2 [36]) was 15%, the Activity (HepG2 [13]) was “Active” and the Activity (HepG2 [14]) was “Active”. For the same compound, the Activity (HepG2 [15]) was “Active”, the Activity (HepG2 [37]) was “Active” and the Activity (HepG2 [38]) was “Active”. For the same compound, the Activity (HepG2 [39]) was “Active”, the fold change (FC) [40] was 0.67 and the Activity (HepG2 [41]) was “Active”. The Activity (HepG2 [42]) was “Active”, the Ratio (HepG2 [43]) was 0.58 and the Activity (HepG2 [27]) was “Active”. For the same compound, the Activity (HepG2 [44]) was “Active”.
